Test results: article PMC5431086, “The Rational Design of Therapeutic Peptides for Aminopeptidase N using a Substrate-Based Approach” (Scientific Reports, 2017)
“And” between values parts separate entries of the source, which are not always exact repeats. Equal entries are not always repeated. Values belong to the molecule of their own block, whether it stands above or below them. Starred links: 1 amine or outer side, 2 acyl side, 3 side chain; linkers in the order of their positions; H or OH if unused. Positions of bridges follow the written chain, without caps; N, C: chain ends. Non-standard residues stand in square brackets, D forms with d. Residues, ends and D or L forms follow the SMILES beside them. No end group written: not given here. *: point of attachment. Suc = O=C(CCC(=O)[*:2])[*:1]; Nle = CCCC[C@H](N)C(=O)O; Cbz = O=C(OCc1ccccc1)*; For = O=C*

Legend:
hAPN (aminopeptidase N) = biological target: T1, hAPN (aminopeptidase N) (Homo sapiens, UniProt P15144); assay: Inhibition of cleavage of fluorogenic alanine substrate (H-Ala-AMC) by APN; assay type: biochemical; conditions: 0.1 μM APN, 100 μM H-Ala-AMC; for IC50: pH 7.2, 37 °C, triplicate; for Ki: APN, Ki from IC50 by Cheng-Prusoff equation
T1 construct: human APN ecdomain (residues 66–967) were expressed and purified as previously described; honeybee-melittin signal peptide (N); His6 (C); made in house; host or cells: insect cells
Procedure: Five-residue long peptides containing P1–P4′ residues from primary cleavages in the library were synthesized and tested for their ability to prevent the cleavage of a fluorogenic alanine substrate by hAPN.
The peptides used in this study were custom synthesized by AAPPTEC of Louisville, KY using traditional Fmoc solid-phase peptide synthesis. All of the peptides were purified and characterized by AAPPTEC. […] Inhibition assays were performed in triplicate in a 100 mM Tris pH 7.2, Brij 35 0.0002% w/v assay buffer at 37 °C with 0.1 μM APN and 100 μM H-Ala-AMC (fluorophore). Values were recorded by Infinite pro plate reader every 2 minutes for 30 minutes with laser parameters set for excitation at 355 nm and emission at 460 nm.

KLK7 = KLK7 (Homo sapiens, UniProt P49862); assay: Protease selectivity panel, KLK7; assay type: biochemical
Procedure: (§1) Next, the specificity of the lead peptide inhibitor cyc-LHSPW was tested against a panel of cancer-associated proteases with wide-ranging substrate specificities (Fig. 5A). APN was the only protease inhibited by cyc-LHSPW with chymotrypsin, trypsin, PSA, KLK7, aminopeptidase A, and the exopeptidase FAP all having Ki values above 100 μM. Having assessed selectivity for purified APN, we next evaluated the ability of cyc-LHSPW to preferentially bind to cells that express surface APN using flow cytometry (Fig. 5B). […] The expression of cell surface-associated APN was examined in the androgen receptor negative neuroendocrine prostate cancer cell lines PC3 and DU145 using a commercially available antibody. […] The peptide was next tested on frozen PC3 and DU145 tumor xenografts sections.
(§2) Figure 5 Determining the specificity of cyc-LHSPW for APN. (A) The cyc-LHSPW peptide was specific inhibitor of APN when compared to a panel of proteases. (B) Fluorescence microscopy of frozen PC3 (left) and DU145 (right) xenograft sections with cyc-LHSPW-(Gly)4-FITC. Sections were incubated with 250 nM of cyc-LHSPW-(Gly)4-FITC overnight and then visualized. The merged fluoresence channels are cyc-LHSPW-(Gly)4-FITC (green) and nuclei (DAPI, blue). (C) Analysis of APN inhibitor binding to PC3 (left) and DU145 cells (right) by flow cytometry. […]

aminopeptidase A = aminopeptidase A (Homo sapiens, UniProt Q07075); assay: Protease selectivity panel, aminopeptidase A; assay type: biochemical
Procedure: as §1, §2

[1] = Toxicity study, i.v. administration; assay type: in vivo; conditions: mice
Procedure: The potential therapeutic efficacy of cyc-LHSPW was next tested in vitro using the PC3 and DU145 cell lines. […] Prior to in vivo therapeutic efficacy studies, a toxicity study was performed with the i.v. administration of cyc-LHSPW. […] Mice bearing established PC3 and DU145 xenografts were treated systemically via tail vein injection with 40 mg/kg of the tumor homing APN peptide cyc-NGR or the cyc-LHSPW peptide t.i.w. x4 (Fig. 6B). […] This therapeutic effect persisted to the end of the study with the cyc-LHSPW-treated mice having a tumor volume of 309.3 ± 92.7 mm^3 at day 35. […] PC3 tumors were removed and stained for the cellular proliferation marker Ki67.

PSA = PSA (Homo sapiens, UniProt P07288); assay: Protease selectivity panel, PSA; assay type: biochemical
Procedure: as §1, §2

FAP = biological target: T2, FAP (Homo sapiens, UniProt Q12884); assay: Protease selectivity panel, FAP; assay type: biochemical
T2 sequence (Q12884 1-760): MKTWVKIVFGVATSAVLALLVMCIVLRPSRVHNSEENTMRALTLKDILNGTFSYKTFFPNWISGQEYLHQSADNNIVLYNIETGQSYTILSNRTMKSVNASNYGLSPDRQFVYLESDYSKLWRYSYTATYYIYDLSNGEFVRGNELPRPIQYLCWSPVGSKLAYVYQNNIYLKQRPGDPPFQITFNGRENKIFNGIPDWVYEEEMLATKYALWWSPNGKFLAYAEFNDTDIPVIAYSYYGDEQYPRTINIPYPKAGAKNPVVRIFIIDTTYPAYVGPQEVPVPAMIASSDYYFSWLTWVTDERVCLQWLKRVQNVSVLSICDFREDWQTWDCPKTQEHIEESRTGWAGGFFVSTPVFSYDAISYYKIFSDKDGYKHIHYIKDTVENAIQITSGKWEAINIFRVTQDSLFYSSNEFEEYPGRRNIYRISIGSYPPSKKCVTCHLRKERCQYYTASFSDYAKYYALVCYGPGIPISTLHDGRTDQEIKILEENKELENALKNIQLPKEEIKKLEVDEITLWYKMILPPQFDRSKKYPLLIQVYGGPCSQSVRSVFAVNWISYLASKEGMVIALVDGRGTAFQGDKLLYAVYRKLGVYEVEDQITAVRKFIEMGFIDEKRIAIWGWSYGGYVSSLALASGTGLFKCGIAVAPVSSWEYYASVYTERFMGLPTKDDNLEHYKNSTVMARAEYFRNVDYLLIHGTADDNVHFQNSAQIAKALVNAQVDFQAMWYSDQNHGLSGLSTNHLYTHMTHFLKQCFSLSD
Procedure: as §1, §2

T1 sequence (P15144 66-967): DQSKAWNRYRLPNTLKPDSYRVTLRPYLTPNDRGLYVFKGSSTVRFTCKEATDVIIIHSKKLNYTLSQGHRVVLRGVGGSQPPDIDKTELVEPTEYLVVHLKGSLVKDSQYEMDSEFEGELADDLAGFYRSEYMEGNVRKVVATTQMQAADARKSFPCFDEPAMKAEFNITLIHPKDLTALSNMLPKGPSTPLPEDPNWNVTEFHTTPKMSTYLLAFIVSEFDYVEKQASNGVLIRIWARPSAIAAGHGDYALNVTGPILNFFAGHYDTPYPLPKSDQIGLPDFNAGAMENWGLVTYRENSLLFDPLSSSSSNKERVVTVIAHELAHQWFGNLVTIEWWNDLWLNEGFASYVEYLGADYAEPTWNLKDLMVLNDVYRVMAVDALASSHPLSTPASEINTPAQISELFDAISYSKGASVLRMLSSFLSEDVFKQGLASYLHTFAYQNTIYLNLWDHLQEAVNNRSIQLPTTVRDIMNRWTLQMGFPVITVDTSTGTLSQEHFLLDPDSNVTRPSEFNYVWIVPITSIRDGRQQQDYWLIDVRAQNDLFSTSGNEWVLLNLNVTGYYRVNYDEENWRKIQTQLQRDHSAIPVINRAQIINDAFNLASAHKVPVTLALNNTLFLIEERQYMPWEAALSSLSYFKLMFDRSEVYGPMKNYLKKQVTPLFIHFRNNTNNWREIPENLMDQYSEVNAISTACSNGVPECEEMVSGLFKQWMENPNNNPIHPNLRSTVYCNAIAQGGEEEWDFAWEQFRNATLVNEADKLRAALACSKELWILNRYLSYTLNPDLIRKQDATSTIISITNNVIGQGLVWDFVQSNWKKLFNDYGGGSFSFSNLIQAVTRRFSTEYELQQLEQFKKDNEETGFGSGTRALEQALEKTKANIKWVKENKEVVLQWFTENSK
Sequence of KLK7 (P49862 30-253, species assumed): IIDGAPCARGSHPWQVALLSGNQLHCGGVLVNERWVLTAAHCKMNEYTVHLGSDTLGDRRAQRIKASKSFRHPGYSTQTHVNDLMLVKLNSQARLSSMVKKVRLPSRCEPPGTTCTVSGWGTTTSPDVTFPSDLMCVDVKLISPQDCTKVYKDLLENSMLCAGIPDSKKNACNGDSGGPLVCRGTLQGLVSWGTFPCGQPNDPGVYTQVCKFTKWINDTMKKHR
Sequence of PSA (P07288 25-261): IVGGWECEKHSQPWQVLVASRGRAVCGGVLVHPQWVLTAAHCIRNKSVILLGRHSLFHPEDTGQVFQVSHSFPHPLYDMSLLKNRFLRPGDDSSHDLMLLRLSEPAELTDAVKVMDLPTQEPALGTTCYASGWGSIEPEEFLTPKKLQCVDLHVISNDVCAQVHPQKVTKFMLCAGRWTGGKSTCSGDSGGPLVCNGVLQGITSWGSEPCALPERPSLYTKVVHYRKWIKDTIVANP
Sequence of aminopeptidase A (Q07075 whole entry, species assumed): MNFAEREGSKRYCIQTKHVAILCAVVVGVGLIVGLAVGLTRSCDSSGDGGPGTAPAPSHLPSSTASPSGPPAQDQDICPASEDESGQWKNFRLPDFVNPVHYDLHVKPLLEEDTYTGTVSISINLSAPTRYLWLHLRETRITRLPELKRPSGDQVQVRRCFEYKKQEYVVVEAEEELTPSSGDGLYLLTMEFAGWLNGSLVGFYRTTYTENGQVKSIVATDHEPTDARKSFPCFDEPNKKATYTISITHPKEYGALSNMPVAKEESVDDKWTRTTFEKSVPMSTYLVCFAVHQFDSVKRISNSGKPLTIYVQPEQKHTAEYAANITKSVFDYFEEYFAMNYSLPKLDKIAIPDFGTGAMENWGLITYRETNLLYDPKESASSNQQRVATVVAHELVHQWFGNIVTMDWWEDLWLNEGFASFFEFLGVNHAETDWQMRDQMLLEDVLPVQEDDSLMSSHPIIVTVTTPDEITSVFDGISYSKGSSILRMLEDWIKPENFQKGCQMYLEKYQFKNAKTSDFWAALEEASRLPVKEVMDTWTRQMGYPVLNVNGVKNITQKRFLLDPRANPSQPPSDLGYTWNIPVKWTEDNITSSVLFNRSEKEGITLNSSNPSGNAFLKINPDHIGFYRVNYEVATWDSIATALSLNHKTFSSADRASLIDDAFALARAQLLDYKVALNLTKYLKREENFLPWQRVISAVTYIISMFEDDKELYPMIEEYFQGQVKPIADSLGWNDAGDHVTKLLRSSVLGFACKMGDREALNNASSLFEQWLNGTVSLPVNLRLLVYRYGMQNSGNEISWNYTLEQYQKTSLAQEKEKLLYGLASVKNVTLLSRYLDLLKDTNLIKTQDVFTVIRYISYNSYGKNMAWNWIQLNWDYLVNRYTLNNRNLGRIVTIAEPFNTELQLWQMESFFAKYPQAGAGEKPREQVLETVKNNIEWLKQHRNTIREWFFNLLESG

Molecule: AHLFN [AHLFN]
IC50 (hAPN (aminopeptidase N)): > 500 µM

Molecule: AHSTF [AHSTF]
IC50 (hAPN (aminopeptidase N)): > 500 µM

Molecule: AHSPW [AHSPW]
IC50 (hAPN (aminopeptidase N)): 9.4 ± 1.1 µM

Molecule: ADARK [ADARK]
IC50 (hAPN (aminopeptidase N)): > 500 µM

Molecule: CC(=O)N[C@@H](Cc1c[nH]cn1)C(=O)N[C@@H](CO)C(=O)N1CCC[C@H]1C(=O)N[C@@H](Cc1c[nH]c2ccccc12)C(=O)O [Ac-HSPW] (Ac-HSPW-OH; C-terminus assumed)
Ki (hAPN (aminopeptidase N)): > 500 µM

Molecule: O=C(N[C@@H](Cc1c[nH]cn1)C(=O)N[C@@H](CO)C(=O)N1CCC[C@H]1C(=O)N[C@@H](Cc1c[nH]c2ccccc12)C(=O)O)OCc1ccccc1 [Cbz-HSPW] (Cbz-HSPW-OH; C-terminus assumed)
Ki (hAPN (aminopeptidase N)): > 500 µM

Molecule: Ac-LHSPW [Ac-LHSPW]
Ki (hAPN (aminopeptidase N)): > 500 µM

Molecule: FYLRE [FYLRE]
IC50 (hAPN (aminopeptidase N)): > 500 µM

Molecule: FDWWG [FDWWG]
IC50 (hAPN (aminopeptidase N)): > 500 µM

Molecule: EHSPW [EHSPW]
IC50 (hAPN (aminopeptidase N)): 115 ± 17.2 µM

Molecule: EPKVA [EPKVA]
IC50 (hAPN (aminopeptidase N)): > 500 µM

Molecule: CC(C)C[C@H](NC(=O)OCc1ccccc1)C(=O)N[C@@H](Cc1c[nH]cn1)C(=O)N[C@@H](CO)C(=O)N1CCC[C@H]1C(=O)N[C@@H](Cc1c[nH]c2ccccc12)C(=O)O [Cbz-LHSPW] (Cbz-LHSPW-OH)
Ki (hAPN (aminopeptidase N)): > 500 µM

Molecule: FSLSK [FSLSK]
IC50 (hAPN (aminopeptidase N)): > 500 µM

Molecule: C[C@H](NC(=O)[C@@H](N)CC(=O)O)C(=O)N[C@@H](CCCNC(=N)N)C(=O)N[C@@H](CCCCN)C(=O)O [DARK] (H-DARK-OH)
IC50 (hAPN (aminopeptidase N)): > 500 µM

Molecule: C[C@@H](O)[C@H](NC(=O)[C@H](CO)NC(=O)[C@@H](N)CC(=O)O)C(=O)N[C@@H](Cc1ccccc1)C(=O)O [DSTF] (H-DSTF-OH)
IC50 (hAPN (aminopeptidase N)): > 500 µM

Molecule: CC(C)C[C@@H]1NC(=O)[C@@H](N)CSSC[C@@H](C(=O)O)NC(=O)[C@H](Cc2c[nH]c3ccccc23)NC(=O)[C@@H]2CCCN2C(=O)[C@H](CO)NC(=O)[C@H](Cc2c[nH]cn2)NC1=O [cyc-LHSPW, Cys-LHSPW-Cys] (H-CLHSPWC-OH; disulfide 1-7)
Ki (KLK7): > 100 µM
Ki (aminopeptidase A): > 100 µM
tolerability ([1]; 40 mg/kg three time a week for four weeks (t.i.w. x4)): well tolerated, i.e. no signs of morbidity
tolerability ([1]; multiple doses of 100 mg/kg): resulted in cachexia
tolerability ([1]; single high dose of 100 mg/kg): well tolerated
Ki (PSA): > 100 µM
Ki (hAPN (aminopeptidase N)): 24.7 ± 1.4 µM
Ki (FAP): > 100 µM

Continued, values first:

IC50 (hAPN (aminopeptidase N)): > 500 µM
Molecule: SKSGQ [SKSGQ]

Ki (hAPN (aminopeptidase N)): > 500 µM
Molecule: CC(C)C[C@H](NC(=O)CCC(=O)O)C(=O)N[C@@H](Cc1c[nH]cn1)C(=O)N[C@@H](CO)C(=O)N1CCC[C@H]1C(=O)N[C@@H](Cc1c[nH]c2ccccc12)C(=O)O [Suc-LHSPW] (Suc-LHSPW-OH)

IC50 (hAPN (aminopeptidase N)): 43 µM and 43.3 µM
Molecule: N[C@@H](Cc1c[nH]cn1)C(=O)N[C@@H](CO)C(=O)N1CCC[C@H]1C(=O)N[C@@H](Cc1c[nH]c2ccccc12)C(=O)O [HSPW] (H-HSPW-OH; N-terminus and C-terminus assumed)

IC50 (hAPN (aminopeptidase N)): > 500 µM
Molecule: INDFL [INDFL]

Ki (hAPN (aminopeptidase N)): > 500 µM
Molecule: CC(C)C[C@@H]1NC(=O)[C@@H](N)CSSC[C@@H](C(=O)O)NC(=O)[C@H](Cc2ccccc2)NC(=O)[C@H]([C@@H](C)O)NC(=O)[C@H](CO)NC(=O)[C@H](CC(=O)O)NC1=O [cyc-LDSTF] (H-CLDSTFC-OH; disulfide 1-7)

IC50 (hAPN (aminopeptidase N)): 82.5 ± 9.3 µM
Molecule: PHSPW [PHSPW]

IC50 (hAPN (aminopeptidase N)): 6.5 ± 0.5 µM
Molecule: CCCC[C@H](N)C(=O)N[C@@H](Cc1c[nH]cn1)C(=O)N[C@@H](CO)C(=O)N1CCC[C@H]1C(=O)N[C@@H](Cc1c[nH]c2ccccc12)C(=O)O [nHSPW] (H-[Nle]HSPW-OH)

IC50 (hAPN (aminopeptidase N)): > 500 µM
Molecule: RDLVD [RDLVD]

Ki (hAPN (aminopeptidase N)): > 500 µM
Molecule: N[C@H]1CSSC[C@@H](C(=O)O)NC(=O)[C@H](Cc2c[nH]c3ccccc23)NC(=O)[C@@H]2CCCN2C(=O)[C@H](CO)NC(=O)[C@H](Cc2c[nH]cn2)NC(=O)[C@@H]2CCCN2C1=O [cyc-PHSPW, Cys-PHSPW-Cys] (H-CPHSPWC-OH; disulfide 1-7)

Ki (hAPN (aminopeptidase N)): > 500 µM
Molecule: CC(C)C[C@H](NC=O)C(=O)N[C@@H](Cc1c[nH]cn1)C(=O)N[C@@H](CO)C(=O)N1CCC[C@H]1C(=O)N[C@@H](Cc1c[nH]c2ccccc12)C(=O)O [For-LHSPW] (For-LHSPW-OH)

Ki (hAPN (aminopeptidase N)): 121 ± 21.4 µM
Molecule: CC(C)C[C@@H]1NC(=O)[C@@H](N)CSSC[C@@H](C(=O)O)NC(=O)[C@@H]2CCCN2C(=O)[C@H](CO)NC(=O)[C@H](Cc2c[nH]cn2)NC1=O [cyc-LHSP] (H-CLHSPC-OH; disulfide 1-6)

IC50 (hAPN (aminopeptidase N)): > 500 µM
Molecule: LDSTF [LDSTF]

IC50 (hAPN (aminopeptidase N)): 10.6 ± 1.2 µM
Molecule: LHSPW [LHSPW]

Ki (hAPN (aminopeptidase N)): > 500 µM
Molecule: C[C@@H]1NC(=O)[C@@H](N)CSSC[C@@H](C(=O)O)NC(=O)[C@H](Cc2c[nH]c3ccccc23)NC(=O)[C@@H]2CCCN2C(=O)[C@H](CO)NC(=O)[C@H](Cc2c[nH]cn2)NC1=O [cyc-AHSPW, Cys-AHSPW-Cys] (H-CAHSPWC-OH; disulfide 1-7)

IC50 (hAPN (aminopeptidase N)): > 500 µM
Molecule: CCCC[C@H](N)C(=O)N[C@@H](CC(=O)O)C(=O)N[C@@H](CCC(N)=O)C(=O)N[C@H](C(=O)N[C@@H](Cc1ccc(O)cc1)C(=O)O)[C@@H](C)CC [nDQIY] (H-[Nle]DQIY-OH)

Ki (hAPN (aminopeptidase N)): > 500 µM
Molecule: O=C(O)CCC(=O)N[C@@H](Cc1c[nH]cn1)C(=O)N[C@@H](CO)C(=O)N1CCC[C@H]1C(=O)N[C@@H](Cc1c[nH]c2ccccc12)C(=O)O [Suc-HSPW] (Suc-HSPW-OH; C-terminus assumed)

Ki (hAPN (aminopeptidase N)): > 500 µM
Molecule: C[C@@H]1NC(=O)[C@H](CC(=O)O)NC(=O)[C@H](C)NC(=O)[C@@H](N)CSSC[C@@H](C(=O)O)NC(=O)[C@H](CCCCN)NC(=O)[C@H](CCCNC(=N)N)NC1=O [cyc-ADARK] (H-CADARKC-OH; disulfide 1-7)

Ki (hAPN (aminopeptidase N)): > 500 µM
Molecule: CC(C)C[C@@H]1NC(=O)[C@@H](N)CSSC[C@@H](C(=O)O)NC(=O)[C@H](CO)NC(=O)[C@H](Cc2c[nH]cn2)NC1=O [cyc-LHS] (H-CLHSC-OH; disulfide 1-5)

Ki (hAPN (aminopeptidase N)): > 500 µM
Molecule: O=CN[C@@H](Cc1c[nH]cn1)C(=O)N[C@@H](CO)C(=O)N1CCC[C@H]1C(=O)N[C@@H](Cc1c[nH]c2ccccc12)C(=O)O [For-HSPW] (For-HSPW-OH; C-terminus assumed)
